Assay results: patent US5789432A, “Aromatase-inhibiting composition containing azole derivative” (Kureha Kagaku Kogyo Kabushiki Kaisha, priority 1993, dated 1998)

What follows are compounds tested against T1, Aromatase (Homo sapiens, UniProt P11511) (assay: Aromatase-inhibiting activity (radiometric, H^14COOH release; method of Covey et al.)). Conditions: not given.
T1 construct: Microsomes of human placenta; from tissue; host or cells: human placenta, microsomes
T1 sequence (P11511 1-503): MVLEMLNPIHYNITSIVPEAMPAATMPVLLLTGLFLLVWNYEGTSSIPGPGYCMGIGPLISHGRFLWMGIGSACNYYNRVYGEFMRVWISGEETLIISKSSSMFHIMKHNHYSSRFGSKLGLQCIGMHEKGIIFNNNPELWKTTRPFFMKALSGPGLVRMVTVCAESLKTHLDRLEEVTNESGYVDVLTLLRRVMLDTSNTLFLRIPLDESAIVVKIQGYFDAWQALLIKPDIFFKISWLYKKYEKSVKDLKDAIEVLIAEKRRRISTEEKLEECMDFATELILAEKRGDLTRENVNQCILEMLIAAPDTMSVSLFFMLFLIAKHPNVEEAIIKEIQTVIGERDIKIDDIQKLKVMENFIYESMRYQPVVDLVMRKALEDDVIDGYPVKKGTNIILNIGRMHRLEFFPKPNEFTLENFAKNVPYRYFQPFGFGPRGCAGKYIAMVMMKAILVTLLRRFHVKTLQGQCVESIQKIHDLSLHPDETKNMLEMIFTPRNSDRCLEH
Type: biochemical
Method: The aromatase-inhibiting activity was measured basically according to the method described in D. F. Covey et al: BBRC […], 81-86, 1988. The aromatase-inhibiting activity of the azole derivatives used in the present invention was evaluated in terms of 50% aromatase activity-inhibiting concentration (IC50) of the derivatives.
The aromatase-inhibiting activity of each compound was measured according to the method of Covey et al: BBRC, 157 (1), 81-86, 1988. Radioactivity of a by-product H^14 COOH released from a ^14 C-labeled substrate by the action of aromatase was measured to radiometrically determine aromatase-inhibiting activity of the compounds. The aromatase-inhibiting activity of the test compound is shown by 50% aromatase activity-inhibiting concentration (IC50) of the compound.
An aromatase reaction system of the composition shown below in 67 mM phosphate buffer solution (0.5 ml) was incubated at 37° C. for 30 minutes with shaking. Chloroform (5 ml) was added to the reaction solution to stop the reaction. The reaction solution was vigorously stirred and then centrifuged to recover the by-product (H^14 COOH) of the aromatase reaction in the aqueous layer. The aqueous layer (0.1 ml) was collected and mixed with a liquid scintillation cocktail (4 ml) to measure its radioactivity.
(1) Aromatase: Microsomes of human placenta (0.1 mg/ml, protein concentration).
(2) Substrate: [19-^14 C] 4-Androstene-3,17-dione (1×10^-6 M; 2 kBq/ml).
(3) Coenzymes: Nicotinamide adenine dinucleotide phosphate, reduced form (2×10^-3 M), glucose-6-phosphate (4×10^-3 M) and glucose-6-phosphate dehydrogenase (4 U/ml).
Radioactivity of the reaction system exclusive of (1) was supposed to be background radioactivity as 100% control of aromatase inhibition. Radioactivity of the reaction system exclusive of (4) was supposed to be that of negative control as 0% of aromatase inhibition. […] 4-Hyroxyandrostenedione was used as a reference compound.
The aromatase inhibiting activities (IC50) of the optical isomers (I-3 (-) and I-3 (+)) were determined in the same way as in Example 6.

**Q.** For `Clc1ccc2c(c1)O[C@]1(Cn3cncn3)CCC[C@@H]1C2` [Compound I-17, (3aR,9aR)-6-Chloro-2,3,9,9a-tetrahydro-3a(1H)-(1H-1,2,4-triazol-1-ylmethyl)cyclopenta[b][1]benzopyran], which IC50 is on record?
**A.** The IC50 was 0.03 µM.

**Q.** `O[C@@]1(c2ccc(Cl)cc2)CCC[C@H]1Cn1cncn1` (relative stereo) [Compound I-12, 1-(4-Chlorophenyl)-c-2-(1H-1,2,4-triazol-1-ylmethyl)cyclopentan-r-1-ol] was tested. Which IC50 did it give?
**A.** The IC50 was 0.01 µM.

**Q.** For `O[C@@]1(Cc2ccc(Cl)cc2)CCC[C@H]1Cn1ccnc1` (stereo in doubt) [Compound I-3, 1-(4-chlorobenzyl)-c-2-(1H-imidazol-1-ylmethyl)cyclopentan-r-1-ol], which IC50 is on record?
**A.** Its IC50 is 0.04 µM.

**Q.** `CC1(C)C[C@@H](Cc2ccc(Cl)cc2)[C@](O)(Cn2cncn2)C1` (relative stereo) [Compound I-20, c-2-(4-Chlorobenzyl)-4,4-dimethyl-1-(1H-1,2,4-triazol-1-ylmethyl)cyclopentan-r-1-ol] was tested. Which IC50 did it give?
**A.** The IC50 was 0.04 µM.

**Q.** Which IC50 does the source give for `O[C@@]1(Cc2ccc(Cl)cc2Cl)CCC[C@H]1Cn1cncn1` (relative stereo) [Compound I-7, 1-(2,4-Dichlorobenzyl)-c-2-(1H-1,2,4-triazol-1-ylmethyl)cyclopentan-r-1-ol] here?
**A.** Its IC50 is 0.01 µM.

**Q.** `CC1(C)CC[C@@H]2Cc3ccc(Cl)cc3O[C@]21Cn1cncn1` [Compound I-14, (3aR,9aR)-6-chloro-2,3,9,9a-tetrahydro-3,3-dimethyl-3a(1H)-(1H-1,2,4-triazol-1-ylmethyl)cyclopenta[b][1]benzopyran] was tested. Which IC50 did it give?
**A.** The IC50 was 0.012 µM.

**Q.** How did the IC50 turn out when `O[C@@]1(Cc2ccc(Cl)cc2)CCC[C@@H]1Cn1ccnc1` (relative stereo) [Compound I-4, 1-(4-chlorobenzyl)-t-2-(1H-imidazol-1-ylmethyl)cyclopentan-r-1-ol] was run?
**A.** Its IC50 is 0.02 µM.

**Q.** How did the IC50 turn out when `CC1(C)C[C@@H](Cc2ccc(Cl)cc2)[C@](O)(Cn2ccnc2)C1` (relative stereo) [Compound I-19, c-2-(4-Chlorobenzyl)-1-(1H-imidazol-1-ylmethyl)-4,4-dimethylcyclopentan-r-1-ol] was run?
**A.** The IC50 was 0.065 µM.

**Q.** Which IC50 does the source give for `O[C@@]1(Cc2ccc(F)cc2F)CCC[C@H]1Cn1cncn1` (relative stereo) [Compound I-8, 1-(2,4-Difluorobenzyl)-c-2-(1H-1,2,4-triazol-1-ylmethyl)cyclopentan-r-1-ol] here?
**A.** Its IC50 is 0.012 µM.

**Q.** How did the IC50 turn out when `C[C@]12CCC(=O)C(O)=C1CC[C@@H]1[C@@H]2CC[C@]2(C)C(=O)CC[C@@H]12` [Reference, 4-Hyroxyandrostenedione, reference compound] was run?
**A.** Its IC50 is 0.02 µM.

**Q.** For `Fc1cccc2c1C[C@H]1CCC[C@@]1(Cn1cncn1)O2` [Compound I-18, (3aR,9aR)-8-Fluoro-2,3,9,9a-tetrahydro-3a(1H)-(1H-1,2,4-triazol-1-ylmethyl)cyclopenta[b][1]benzopyran], which IC50 is on record?
**A.** Its IC50 is 0.013 µM.

**Q.** How did the IC50 turn out when `O[C@@]1(Cc2ccc(Cl)cc2)CCC[C@H]1Cn1cncn1` (relative stereo) [Compound I-6, 1-(4-Chlorobenzyl)-c-2-(1H-1,2,4-triazol-1-ylmethyl)cyclopentan-r-1-ol] was run?
**A.** Its IC50 is 0.04 µM.

**Q.** With `O[C@@]1(Cc2ccc(-c3ccccc3)cc2)CCC[C@H]1Cn1cncn1` (relative stereo) [Compound I-9, 1-(p-Biphenylmethyl)-c-2-(1H-1,2,4-triazol-1-ylmethyl)cyclopentan-r-1-ol] as the compound, how does the IC50 read?
**A.** The IC50 was 0.013 µM.

**Q.** How did the IC50 turn out when `CC(C)[C@@](O)(CCn1ccnc1)Cc1ccc(Cl)cc1` [Compound I-2, (3S)-3-(4-chlorobenzyl)-1-(1H-imidazol-1-yl)-4-methylpentan-3-ol] was run?
**A.** Its IC50 is 0.01 µM.

Same assay, conditions: Table 1; microsomes of human placenta, [19-14C] 4-androstene-3,17-dione 1×10^-6 M, 37° C., 30 minutes; read-out: IC50 (50% aromatase activity-inhibiting concentration)

**Q.** `CC(C)[C@](O)(CCn1ccnc1)c1ccc(Cl)cc1` [Compound I-1, (3R)-3-(4-chlorophenyl)-1-(1H-imidazol-1-yl)-4-methylpentan-3-ol] was tested. Which IC50 did it give?
**A.** Its IC50 is 0.01 µM.

**Q.** `CC1(C)CC[C@@H]2Cc3ccc(Cl)cc3O[C@]21Cn1ccnc1` [Compound I-15, (3aR,9aR)-6-Chloro-2,3,9,9a-tetrahydro-3a(1H)-(1H-imidazol-1-ylmethyl)-3,3-dimethylcyclopenta[b][1]benzopyran] was tested. Which IC50 did it give?
**A.** The IC50 was 0.045 µM.

**Q.** With `O[C@@]1(c2ccccc2)CCC[C@H]1Cn1ccnc1` (relative stereo) [Compound I-11, 1-(Phenyl)-c-2-(1H-imidazol-1-ylmethyl)cyclopentan-r-1-ol] as the compound, how does the IC50 read?
**A.** The IC50 was 0.035 µM.

**Q.** How did the IC50 turn out when `Clc1ccc2c(c1)O[C@]1(Cn3ccnc3)CCC[C@@H]1C2` [Compound I-16, (3aR,9aR)-6-Chloro-2,3,9,9a-tetrahydro-3a(1H)-(1H-imidazol-1-ylmethyl)cyclopenta[b][1]benzopyran] was run?
**A.** The IC50 was 0.03 µM.

**Q.** `O[C@@]1(c2ccc(Cl)cc2)CCC[C@H]1Cn1ccnc1` (relative stereo) [Compound I-10, 1--(4-Chlorophenyl)-c-2-(1H-imidazol-1-ylmethyl)cyclopentan-r-1-ol] was tested. Which IC50 did it give?
**A.** Its IC50 is 0.03 µM.

**Q.** Which IC50 does the source give for `O[C@@]1(Cc2ccccc2)CCC[C@@H]1Cn1ccnc1` (relative stereo) [Compound I-5, 1-(Benzyl)-t-2-(1H-imidazol-1-ylmethyl)cyclopentan-r-1-ol] here?
**A.** The IC50 was 0.05 µM.

Same assay, conditions: read-out: IC50 (50% aromatase activity-inhibiting concentration); Table 1; microsomes of human placenta, [19-14C] 4-androstene-3,17-dione 1×10^-6 M, 37° C., 30 minutes

**Q.** With `O[C@@]1(Cc2ccc(Cl)cc2)CCC[C@H]1Cn1ccnc1` (stereo in doubt) [Compound I-13, nitrate of 1-(4-chlorobenzyl)-c-2-(1H-imidazol-1-ylmethyl)-cyclopentan-r-1-ol] as the compound, how does the IC50 read?
**A.** The IC50 was 0.055 µM.

Same assay, conditions: read-out: IC50 of optical isomers; Example 7; same way as in Example 6

**Q.** For `O[C@]1(Cc2ccc(Cl)cc2)CCC[C@@H]1Cn1ccnc1` (stereo in doubt) [I-3 (+), 1-(4-chlorobenzyl)-c-2-(1H-imidazol-1-ylmethyl)cyclopentan-r-1-ol], which IC50 is on record?
**A.** Its IC50 is 0.08 µM.

**Q.** How did the IC50 turn out when `O[C@]1(Cc2ccc(Cl)cc2)CCC[C@@H]1Cn1ccnc1` (stereo in doubt) [I-3 (-), 1-(4-chlorobenzyl)-c-2-(1H-imidazol-1-ylmethyl)cyclopentan-r-1-ol] was run?
**A.** The IC50 was 0.004 µM.
